Like-named read-outs stand apart in the source and are kept apart here.
Biological target: T1, CYP4A (Homo sapiens, UniProt Q02928)
T1 construct: host or cells: bactosome, i.e. bacterial membrane preparation (own knowledge of the term)
T1 sequence (Q02928 5-519): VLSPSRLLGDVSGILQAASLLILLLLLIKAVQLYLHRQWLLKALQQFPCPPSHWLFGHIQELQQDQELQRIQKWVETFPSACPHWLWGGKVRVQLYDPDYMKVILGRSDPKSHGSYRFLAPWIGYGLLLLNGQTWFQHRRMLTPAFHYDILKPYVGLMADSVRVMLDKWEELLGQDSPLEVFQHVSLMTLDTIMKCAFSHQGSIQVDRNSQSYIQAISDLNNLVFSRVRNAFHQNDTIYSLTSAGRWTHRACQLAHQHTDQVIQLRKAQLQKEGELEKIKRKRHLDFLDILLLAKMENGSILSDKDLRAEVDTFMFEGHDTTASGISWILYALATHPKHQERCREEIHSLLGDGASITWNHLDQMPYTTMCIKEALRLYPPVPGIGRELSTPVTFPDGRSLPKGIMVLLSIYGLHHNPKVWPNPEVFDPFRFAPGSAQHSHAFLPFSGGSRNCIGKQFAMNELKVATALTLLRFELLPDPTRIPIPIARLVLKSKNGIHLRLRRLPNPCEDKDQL
Assay: CYP4A enzyme assay (Luciferin-ME luminescence, CYP4A bactosome)
Assay type: biochemical
Conditions: compound concentration 5 μM
Summary of the method: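 CYP4A bactosome preincubated 15 min at room temperature with compound (5 μM) in 100 mM KPO4, 0.1% BSA, 1 mM DTT. Luciferin-ME (5 mM) plus NADPH regeneration system added, 30 min at room temperature, then detection reagent for 15 min. Inhibition derived from luminescence versus controls.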

[1] = 75% or more, read-out: % Inhibition 75% or more
[2] = 25%-50%, read-out: % Inhibition 25%-50%

SMILES	inhibition at 5 µM [1]	inhibition at 5 µM [2]	other results
COc1ccc(S(=O)(=O)N2CCCC(C(=O)N3CCN(c4cc(C)nc5ccccc45)CC3)C2)cc1 (stereo not drawn) [Formula 29, (1-(4-methoxyphenylsulfonyl)piperidin-3-yl) (4-(2-methylquinolin-4-yl)piperazin-1-yl)methanone]	–	–	inhibition at 5 µM ('50%-75%', read-out: % Inhibition 50%-75%): 50 to 75%
CCN(CC)c1ccc(S(=O)(=O)N2CCCC(C(=O)N3CCN(c4ccnc5ccccc45)CC3)C2)cc1 (stereo not drawn) [Formula 83, (1-(4-(diethylamino)phenylsulfonyl)piperidin-3-yl) (4-(quinolin-4-yl)piperazin-1-yl)methanone]	≥ 75%	–	–
Cc1cc(N2CCN(C(=O)C3CCCN(S(=O)(=O)c4ccc(O)cc4)C3)CC2)c2ccccc2n1 (stereo not drawn) [Formula 32, (1-(4-hydroxyphenylsulfonyl)piperidin-3-yl) (4-(2-methylquinolin-4-yl)piperazin-1-yl) methanone]	≥ 75%	–	–
CC(=O)Nc1ccc(S(=O)(=O)N2CCCC(C(=O)N3CCN(c4ccnc5ccccc45)CC3)C2)cc1 (stereo not drawn) [Formula 78, N-(4-((3-(4-(quinolin-4-yl)piperazine-1-carbonyl)piperidin-1-yl)sulfonyl)phenyl) acetamide]	≥ 75%	–	–

The next lines start with results.

inhibition at 5 µM [1]	inhibition at 5 µM [2]	SMILES	other results
–	25 to 50%	O=C(C1CCCN(S(=O)(=O)c2cccc(F)c2)C1)N1CCN(c2cc(C(F)(F)F)nc3ccccc23)CC1 (stereo not drawn) [Formula 72, (1-(3-fluorophenylsulfonyl)piperidin-3-yl) (4-(2-(trifluoromethyl)quinolin-4-yl)piperazin-1-yl) methanone]	–
–	25 to 50%	Cc1cc(N2CCN(C(=O)C3CCCN(S(=O)(=O)c4ccc(Br)cc4)C3)CC2)c2ccccc2n1 (stereo not drawn) [Formula 40, (1-((4-bromophenyl)sulfonyl)piperidin-3-yl) (4-(2-methylquinolin-4-yl)piperazin-1-yl)methanone]	–

Source: US12479821B2 (MBD CO., LTD., priority 2019, dated 2025)
